Measured values from patent publication US5747490A, “Alpha 1b adrenergic receptor antagonists” (Merck & Co., Inc., priority 1996, dated 1998).

Experiments:
[1] = biological target: T1, human alpha 2b adrenergic receptor (Homo sapiens, UniProt P18089); test: Receptor binding, cloned human alpha 2b; conditions: for Ki: Table 1, cloned human receptors, read-out: alpha adrenergic receptor subtype binding, 2b
T1 construct: expressed in transfected cells; host or cells: cloned human receptor
T1 sequence (P18089 1-450): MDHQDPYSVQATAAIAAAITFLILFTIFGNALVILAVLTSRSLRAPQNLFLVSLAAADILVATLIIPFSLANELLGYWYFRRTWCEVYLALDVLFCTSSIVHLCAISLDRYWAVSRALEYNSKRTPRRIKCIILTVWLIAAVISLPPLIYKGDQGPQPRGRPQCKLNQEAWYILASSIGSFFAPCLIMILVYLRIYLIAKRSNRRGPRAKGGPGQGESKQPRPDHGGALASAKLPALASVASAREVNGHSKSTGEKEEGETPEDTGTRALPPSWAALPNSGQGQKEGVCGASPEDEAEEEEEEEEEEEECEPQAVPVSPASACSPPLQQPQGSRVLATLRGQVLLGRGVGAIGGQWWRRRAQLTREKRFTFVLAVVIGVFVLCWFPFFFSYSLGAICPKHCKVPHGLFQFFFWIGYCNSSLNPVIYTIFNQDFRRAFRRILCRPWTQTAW
Text: (§1) This is accomplished according to methods known in the art using other receptors responsible for mediating diverse biological functions. [See e.g., PCT International Application Publication No. WO94/10989, published 26 May 1994; U.S. Pat. No. 5,403,847, issued Apr. 4, 1995, the contents of which are hereby incorporated by reference]. Compounds which are both selective amongst the various human alpha 1 adrenergic receptor subtypes and which have low affinity for other receptors, such as the alpha 2 adrenergic receptors, the β-adrenergic receptors, the muscarinic receptors, the serotonin receptors, and others are particularly preferred. The absence of these non-specific activities may be confirmed by using cloned and expressed receptors in an analogous fashion to the method disclosed herein for identifying compounds which have high affinity for the various human alpha 1 adrenergic receptors. Furthermore, functional biological tests are used to confirm the effects of identified compounds as alpha 1b adrenergic receptor antagonists.
(§2) Receptor binding data for representative compounds of the present invention in cloned human receptors is shown below in Table 1.

[2] = biological target: T2, human alpha 2c adrenergic receptor (Homo sapiens, UniProt P18825); test: Receptor binding, cloned human alpha 2c; conditions: for Ki: Table 1, cloned human receptors, read-out: alpha adrenergic receptor subtype binding, 2c
T2 construct: expressed in transfected cells; host or cells: cloned human receptor
T2 sequence (P18825 1-462): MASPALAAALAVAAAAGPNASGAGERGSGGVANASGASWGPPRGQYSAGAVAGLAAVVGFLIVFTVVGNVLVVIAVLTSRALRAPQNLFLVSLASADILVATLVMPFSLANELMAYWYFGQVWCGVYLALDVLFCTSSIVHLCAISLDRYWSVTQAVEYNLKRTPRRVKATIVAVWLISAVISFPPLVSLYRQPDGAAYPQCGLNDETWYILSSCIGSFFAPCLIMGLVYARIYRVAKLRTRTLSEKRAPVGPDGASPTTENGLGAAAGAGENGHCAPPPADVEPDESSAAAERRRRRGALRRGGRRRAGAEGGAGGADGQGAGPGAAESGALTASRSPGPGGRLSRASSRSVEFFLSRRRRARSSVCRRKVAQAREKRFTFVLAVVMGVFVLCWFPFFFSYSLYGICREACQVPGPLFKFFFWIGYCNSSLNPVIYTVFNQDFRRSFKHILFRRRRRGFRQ
Text: as §1, §2

[3] = biological target: T3, human alpha 1a adrenergic receptor (Homo sapiens, UniProt P35348); test: Selective Binding assay, alpha 1a ([125I]-HEAT competition binding); conditions: Table 1, cloned human receptors; read-out: alpha adrenergic receptor subtype binding, 1a
T3 construct: host or cells: stably transfected human alpha 1a cell line (ATCC CRL 11140)
T3 sequence (P35348 1-466): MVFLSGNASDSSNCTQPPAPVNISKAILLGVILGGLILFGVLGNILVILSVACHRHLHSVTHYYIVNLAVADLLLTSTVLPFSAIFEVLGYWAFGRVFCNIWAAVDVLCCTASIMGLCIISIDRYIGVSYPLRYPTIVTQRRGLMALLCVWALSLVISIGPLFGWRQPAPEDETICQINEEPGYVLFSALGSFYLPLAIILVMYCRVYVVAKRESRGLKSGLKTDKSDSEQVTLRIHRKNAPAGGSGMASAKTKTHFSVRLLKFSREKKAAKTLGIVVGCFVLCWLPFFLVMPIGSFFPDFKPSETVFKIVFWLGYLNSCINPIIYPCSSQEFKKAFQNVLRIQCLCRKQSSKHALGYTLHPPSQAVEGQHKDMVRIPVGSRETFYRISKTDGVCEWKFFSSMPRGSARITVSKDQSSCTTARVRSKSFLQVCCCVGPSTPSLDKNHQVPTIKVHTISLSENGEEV
Procedure: (§3) These competition binding reactions (total volume=200 μl) contained 50 mM Tris-HCl pH 7.4, 5 mM EDTA, 150 mM NaCl, 100 pM [^125 I]-HEAT, membranes prepared from cell lines transfected with the respective alpha 1 subtype expression plasmid and increasing amounts of unlabeled ligand. Reactions were incubated at room temperature for one hour with shaking. Reactions were filtered onto Whatman GF/C glass fiber filters with a Inotec 96 well cell harvester. Filters were washed three times with ice cold buffer and bound radioactivity was determined (Ki).

[4] = biological target: T4, human alpha 1b adrenergic receptor (Homo sapiens, UniProt P35368); test: Alpha 1b Adrenergic Receptor Binding ([125I]-HEAT competition binding); conditions: Table 1, cloned human receptors; read-out: alpha adrenergic receptor subtype binding, 1b
T4 construct: host or cells: stably transfected human alpha 1b cell line (ATCC CRL 11139)
T4 sequence (P35368 1-520): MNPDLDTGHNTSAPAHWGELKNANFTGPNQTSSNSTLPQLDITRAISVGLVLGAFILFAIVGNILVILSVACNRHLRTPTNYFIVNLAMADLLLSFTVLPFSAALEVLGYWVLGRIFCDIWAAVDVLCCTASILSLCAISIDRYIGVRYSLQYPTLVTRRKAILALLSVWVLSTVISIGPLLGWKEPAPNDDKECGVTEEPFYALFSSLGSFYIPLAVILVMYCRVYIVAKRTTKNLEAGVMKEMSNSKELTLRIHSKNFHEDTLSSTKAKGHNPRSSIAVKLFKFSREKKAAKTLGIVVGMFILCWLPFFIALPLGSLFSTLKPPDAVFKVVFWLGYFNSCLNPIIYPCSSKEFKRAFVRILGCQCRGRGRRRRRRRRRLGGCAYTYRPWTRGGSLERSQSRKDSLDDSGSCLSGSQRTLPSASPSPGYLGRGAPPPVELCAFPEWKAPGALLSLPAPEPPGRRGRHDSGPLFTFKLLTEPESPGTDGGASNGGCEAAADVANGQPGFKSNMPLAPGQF
Procedure: as §2
Screening assay: Alpha 1b Adrenergic Receptor Binding
as §3, with “Membranes prepared from the stably transfected human alpha 1b cell line (ATCC CRL 11139) were used to identify compounds that bind to the human alpha 1b adrenergic receptor. These” for “These”, “from the alpha 1b” for “from”, “line” for “lines transfected with the respective alpha 1 subtype expression plasmid”

[5] = biological target: T5, human alpha 2a adrenergic receptor (Homo sapiens, UniProt P08913); test: Receptor binding, cloned human alpha 2a; conditions: for Ki: Table 1, cloned human receptors, read-out: alpha adrenergic receptor subtype binding, 2a
T5 construct: expressed in transfected cells; host or cells: cloned human receptor
T5 sequence (P08913 1-465): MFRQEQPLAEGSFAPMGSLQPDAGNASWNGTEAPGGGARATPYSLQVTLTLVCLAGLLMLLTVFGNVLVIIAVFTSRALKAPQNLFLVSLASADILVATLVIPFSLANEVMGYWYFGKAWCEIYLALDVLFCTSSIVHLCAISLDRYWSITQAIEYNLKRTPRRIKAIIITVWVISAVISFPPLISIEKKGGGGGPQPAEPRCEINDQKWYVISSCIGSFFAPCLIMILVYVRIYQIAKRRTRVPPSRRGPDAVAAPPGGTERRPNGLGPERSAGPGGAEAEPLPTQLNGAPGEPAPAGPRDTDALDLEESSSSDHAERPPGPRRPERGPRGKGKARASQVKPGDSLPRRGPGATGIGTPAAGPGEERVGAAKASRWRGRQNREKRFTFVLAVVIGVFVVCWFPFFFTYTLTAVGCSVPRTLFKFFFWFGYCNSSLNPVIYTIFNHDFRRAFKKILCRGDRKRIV
Text: as §1, §2

[6] = biological target: T6, human alpha 1d adrenergic receptor (Homo sapiens, UniProt P25100); test: Selective Binding assay, alpha 1d ([125I]-HEAT competition binding); conditions: Table 1, cloned human receptors; read-out: alpha adrenergic receptor subtype binding, 1d
T6 construct: host or cells: stably transfected human alpha 1d cell line (ATCC CRL 11138)
T6 sequence (P25100 1-572): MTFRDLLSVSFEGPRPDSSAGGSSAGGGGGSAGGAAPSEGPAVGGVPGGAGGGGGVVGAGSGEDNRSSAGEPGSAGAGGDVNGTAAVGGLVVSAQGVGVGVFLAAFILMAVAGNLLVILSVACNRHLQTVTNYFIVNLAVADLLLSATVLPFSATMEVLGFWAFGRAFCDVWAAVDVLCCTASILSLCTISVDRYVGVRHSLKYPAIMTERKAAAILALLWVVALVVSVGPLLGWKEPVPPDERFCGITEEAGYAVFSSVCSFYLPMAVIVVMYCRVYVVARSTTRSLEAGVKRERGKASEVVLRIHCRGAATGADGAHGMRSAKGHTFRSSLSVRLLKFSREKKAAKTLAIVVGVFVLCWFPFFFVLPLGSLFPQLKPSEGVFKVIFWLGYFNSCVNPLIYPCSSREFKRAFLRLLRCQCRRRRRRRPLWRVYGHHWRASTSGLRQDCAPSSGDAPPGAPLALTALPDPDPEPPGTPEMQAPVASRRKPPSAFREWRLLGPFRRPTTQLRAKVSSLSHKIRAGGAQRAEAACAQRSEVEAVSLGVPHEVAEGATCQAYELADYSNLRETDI
Procedure: as §3

Compound: COc1cc2nc(N3CCN(C(=O)OCc4ccccc4)[C@H](C(=O)NC(C)(C)C)C3)nc(N)c2cc1OC [Compound 2a, (S)-1-(4-Amino-6,7-dimethoxy-2-quinazolinyl)-4-[(benzyloxy)carbonyl]-3-(1,1-dimethylethylamino)carbonyl piperazine]
- Ki [1]: > 10 µM
- Ki [2]: 715 nM
- Ki [3]: 463 nM
- Ki [4]: 1 nM
- Ki [5]: 683 nM
- Ki [6]: 29 nM

Compound: COc1cc2nc(N3CCN[C@H](C(=O)NC(C)(C)C)C3)nc(N)c2cc1OC [Compound 3a, (S)-1-(4-Amino-6,7-dimethoxy-2-quinazolinyl)-3-(1,1-dimethylethylamino)carbonyl piperazine]
- Ki [1]: > 10 µM
- Ki [2]: 736 nM
- Ki [3]: 1190 nM
- Ki [4]: 2.7 nM
- Ki [5]: 1170 nM
- Ki [6]: 111 nM

Compound: COc1cc2nc(N3CCN(C(=O)c4ccco4)[C@H](C(=O)NC(C)(C)C)C3)nc(N)c2cc1OC [Compound 4a]
- inhibition at 1 µM ([1]; read-out: alpha adrenergic receptor subtype binding, 2b, % @ 1 uM): 16%
- inhibition at 10 µM ([1]; read-out: alpha adrenergic receptor subtype binding, 2b, % @ 10 uM): 23%
- inhibition at 1 µM ([2]; read-out: alpha adrenergic receptor subtype binding, 2c, % @ 1 uM): 42%
- inhibition at 10 µM ([2]; read-out: alpha adrenergic receptor subtype binding, 2c, % @ 10 uM): 71%
- Ki [3]: > 3670 nM
- Ki [4]: 3.4 nM
- inhibition at 1 µM ([5]; read-out: alpha adrenergic receptor subtype binding, 2a, % @ 1 uM): 23%
- inhibition at 10 µM ([5]; read-out: alpha adrenergic receptor subtype binding, 2a, % @ 10 uM): 65%
- Ki [6]: 97 nM
